Measured values: patent publication US20240401144A2, “PRIMER-PROBE COMPOSITION, KIT, AND DETECTION METHOD” (ASCENTAWITS PHARMACEUTICALS, LTD., priority 2021, published 2024)

Experiments:
Format in all cases: cell-based
[1] = test system: SK-HEP-1 hepatocellular carcinoma cell line; assay: Ex vivo proliferation assay, 96 h exposure; details: Homo sapiens, SK-HEP1; SK-HEP-1, 96 h of exposure; AKR1C3 protein Low; read-out: 3424 IC50
Protocol: (§1) Exponentially growing cells were inoculated. After 24 h, the test compound OBI-3424 was added. After addition of the test compound OBI-3424, plates were incubated in a standard tissue incubator at 37° C. for the indicated hours. At the end of the experiment, viable cells were detected using the CellTiter Glo (CTG) assay kit or AlamarBlue. Drug concentrations (IC50) resulting in 50% growth inhibition relative to untreated control were calculated using XLfit (IDBS, Boston, MA) or Prism 6 (GraphPad, San Diego, CA).
(§2) After exposing the hepatocellular carcinoma cell lines to compound OBI-3424 for 96 h and exposing the NSCLC cell lines to compound OBI-3424 for 72 h, the IC50 value was determined by ex vivo proliferation assay, and the expression of AKR1C3 protein in hepatocellular carcinoma cell lines was determined by Western blotting (tubulin was used as loading control). The expression data of AKR1C3 RNA in the hepatocellular carcinoma cell lines and in the NSCLC cell lines were from CrownBio database (https://db.crownbio.com/Crownbio/OncoExpress_Login.aspx).

[2] = test system: HLE hepatocellular carcinoma cell line; assay: Ex vivo proliferation assay, 96 h exposure; details: Homo sapiens, 96 h of exposure, AKR1C3 protein High, read-out: 3424 IC50
Protocol: as §1, §2

[3] = test system: HLF hepatocellular carcinoma cell line; assay: Ex vivo proliferation assay, 96 h exposure; details: Homo sapiens, 96 h of exposure, AKR1C3 protein Low, read-out: 3424 IC50
Protocol: as §1, §2

[4] = test system: SNU-449 hepatocellular carcinoma cell line; assay: Ex vivo proliferation assay, 96 h exposure; details: Homo sapiens; SNU-449, 96 h of exposure; AKR1C3 protein High; read-out: 3424 IC50
Protocol: as §1, §2

[5] = test system: SNU-182 hepatocellular carcinoma cell line; assay: Ex vivo proliferation assay, 96 h exposure; details: Homo sapiens; SNU-182, 96 h of exposure; AKR1C3 protein Low; read-out: 3424 IC50
Protocol: as §1, §2

[6] = test system: SNU-398 hepatocellular carcinoma cell line; assay: Ex vivo proliferation assay, 96 h exposure; details: Homo sapiens; SNU-398, 96 h of exposure; AKR1C3 protein Low; read-out: 3424 IC50
Protocol: as §1, §2

[7] = test system: SNU-475 hepatocellular carcinoma cell line; assay: Ex vivo proliferation assay, 96 h exposure; details: Homo sapiens; SNU-475, 96 h of exposure; AKR1C3 protein High; read-out: 3424 IC50
Protocol: as §1, §2

[8] = test system: C3A hepatocellular carcinoma cell line; assay: Ex vivo proliferation assay, 96 h exposure; details: Homo sapiens, 96 h of exposure, AKR1C3 protein High, read-out: 3424 IC50
Protocol: as §1, §2

[9] = test system: KG-1 hematological cancer cell line; assay: Ex vivo proliferation assay, hematological cancer cell lines, 72 h; details: Homo sapiens; Table 6: KG-1, 72 h of exposure
Protocol: as §1
(§3) After exposing the hematological cancer cell lines to compound OBI-3424 for 72 h, the IC50 value was determined by ex vivo proliferation assay. The expression data of AKR1C3 RNA in hematological cancer cell lines was from CrownBio database (https://db.crownbio.com/Crownbio/OncoExpress_Login.aspx).

[10] = test system: HEL hematological cancer cell line; assay: as above; details: Homo sapiens; Table 6: HEL, 72 h of exposure
Protocol: as §1, §3

[11] = test system: Jurkat hematological cancer cell line; assay: as above; details: Homo sapiens; Table 6: Jurkat, 72 h of exposure
Protocol: as §1, §3

[12] = test system: SUP-T1 hematological cancer cell line; assay: as above; details: Homo sapiens; Table 6: SUP-T1, 72 h of exposure
Protocol: as §1, §3

[13] = test system: P31/FUJ hematological cancer cell line; assay: as above; details: Homo sapiens; Table 6: P31/FUJ, 72 h of exposure
Protocol: as §1, §3

[14] = test system: TALL-1 hematological cancer cell line; assay: as above; details: Homo sapiens; Table 6: TALL-1, 72 h of exposure
Protocol: as §1, §3

[15] = test system: PF-382 hematological cancer cell line; assay: as above; details: Homo sapiens; Table 6: PF-382, 72 h of exposure
Protocol: as §1, §3

[16] = test system: THP-1 hematological cancer cell line; assay: as above; details: Homo sapiens; Table 6: THP-1, 72 h of exposure
Protocol: as §1, §3

[17] = test system: CCRF-CEM hematological cancer cell line; assay: as above; details: Homo sapiens; Table 6: CCRF-CEM, 72 h of exposure
Protocol: as §1, §3

[18] = test system: Kasumi-1 hematological cancer cell line; assay: as above; details: Homo sapiens; Table 6: Kasumi-1, 72 h of exposure
Protocol: as §1, §3

[19] = test system: TF-1 hematological cancer cell line; assay: as above; details: Homo sapiens; Table 6: TF-1, 72 h of exposure
Protocol: as §1, §3

NCIH1755 NSCLC cell line = assay: Ex vivo proliferation assay, 72 h exposure; details: Homo sapiens, NCI-H1755; NCIH1755, 72 h of exposure; read-out: 3424 IC50
Protocol: as §1, §2

NCI-H23 NSCLC cell line = assay: Ex vivo proliferation assay, 72 h exposure; details: Homo sapiens; NCI-H23, 72 h of exposure; read-out: 3424 IC50
Protocol: as §1, §2

NCI-H522 NSCLC cell line = assay: Ex vivo proliferation assay, 72 h exposure; details: Homo sapiens; NCI-H522, 72 h of exposure; read-out: 3424 IC50
Protocol: as §1, §2

[20] = test system: NCI-H1792 NSCLC cell line; assay: Ex vivo proliferation assay, 72 h exposure; details: Homo sapiens; NCI-H1792, 72 h of exposure; read-out: 3424 IC50
Protocol: as §1, §2

[21] = test system: NCI-H1944 NSCLC cell line; assay: Ex vivo proliferation assay, 72 h exposure; details: Homo sapiens; NCI-H1944, 72 h of exposure; read-out: 3424 IC50
Protocol: as §1, §2

[22] = test system: NCI-H2228 NSCLC cell line; assay: Ex vivo proliferation assay, 72 h exposure; details: Homo sapiens; NCI-H2228, 72 h of exposure; read-out: 3424 IC50
Protocol: as §1, §2

For C[C@H](OP(=O)(N1CC1)N1CC1)c1ccc([N+](=O)[O-])c(Oc2cccc(C(=O)N(C)C)c2)c1 [OBI-3424], the IC50 [1] was greater than 1 µM, the IC50 [2] was 0.113 µM and the IC50 [3] was greater than 1 µM. For the same compound, the IC50 [4] was 0.045 µM, the IC50 [5] was greater than 1 µM and the IC50 [6] was greater than 1 µM. For the same compound, the IC50 [7] was 0.015 µM, the IC50 [8] was 0.005 µM and the IC50 [9] was 0.153 µM. For the same compound, the IC50 [10] was 0.224 µM, the IC50 [11] was 0.0511 µM and the IC50 [12] was 0.0039 µM. The IC50 [13] was no less than 1 µM, the IC50 [14] was 0.024 µM and the IC50 [15] was 0.006 µM. For the same compound, the IC50 [16] was no less than 1 µM, the IC50 [17] was 0.0017 µM and the IC50 [18] was no less than 1 µM. For the same compound, the IC50 [19] was 0.0168 µM, the IC50 (NCIH1755 NSCLC cell line) was 0.0082 µM and the IC50 (NCI-H23 NSCLC cell line) was greater than 1 µM. For the same compound, the IC50 (NCI-H522 NSCLC cell line) was greater than 1 µM, the IC50 [20] was 0.0045 µM and the IC50 [21] was 0.0023 µM. For the same compound, the IC50 [22] was 0.00021 µM.
